Patent US9695178B2, “6-(2-pyridyl)-7,8-dihydro-5H-pyrido[4,3-D]pyrimidine analogs as hedgehog pathway signaling inhibitors and therapeutic applications thereof” (Suzhou Yunxuan Yiyao Keji Youxian Gongsi, priority 2013, dated 2017)

Biological target: Smo (Homo sapiens, UniProt Q99835)
Assay: Bodipy-Cyclopamine Binding Assay (confirmation assay), Hek293-SMO cells
Description: The confirmation assay is based on Bodipy-Cyclopamine Binding Assay:
Bodipy-Cyclopamine binding assay is a fluorescence based assay used to analysis the binding of Smo agonists. […] Bodipy-Cyclopamine was purchased from Toronto Research Chemicals and dissolved in methanol.
Hek293-SMO cells were plated in 96-well-plate (3340, Corning), the final cell concentration is 15,000 cells/well in 100 ul 1% serum-containing DMEM. The plates were incubated in 37 degree for additional 48 hours.
Hek293-SMO plate were washed with PBS and fixed with 4% paraformaldehyde (PFA)/PBS for 20 min at room temperature. After removing the PFA buffer, the cells were incubated with DAPI/PBS (5 ug/mL) for 10 min and followed by twice wash with PBS. After wash, cells were incubated for 2 h at room temperature in binding buffer (HBSS W/O Ca^2+ and Mg^2+) containing 100 nM bodipy-cyclopamine and compounds over a range of concentrations from 0-10 μM for competitive binding. After incubation, the cells were washed twice with the PBS. The fluorescence images were automatically captured and analyzed by a high content fluorescence imaging system (Arrayscan VTI, Thermo). GDC-0449 was used as reference compound to normalize the data. IC50 values were calculated with GraphPad Prism software using the sigmoidal dose-response function. The Ki was calculated following the Cheng-Prusoff equation, as Ki=IC50/[1+[bodipy-cyclopamine]/Kd)].

Chain of Smo (Q99835 28-787): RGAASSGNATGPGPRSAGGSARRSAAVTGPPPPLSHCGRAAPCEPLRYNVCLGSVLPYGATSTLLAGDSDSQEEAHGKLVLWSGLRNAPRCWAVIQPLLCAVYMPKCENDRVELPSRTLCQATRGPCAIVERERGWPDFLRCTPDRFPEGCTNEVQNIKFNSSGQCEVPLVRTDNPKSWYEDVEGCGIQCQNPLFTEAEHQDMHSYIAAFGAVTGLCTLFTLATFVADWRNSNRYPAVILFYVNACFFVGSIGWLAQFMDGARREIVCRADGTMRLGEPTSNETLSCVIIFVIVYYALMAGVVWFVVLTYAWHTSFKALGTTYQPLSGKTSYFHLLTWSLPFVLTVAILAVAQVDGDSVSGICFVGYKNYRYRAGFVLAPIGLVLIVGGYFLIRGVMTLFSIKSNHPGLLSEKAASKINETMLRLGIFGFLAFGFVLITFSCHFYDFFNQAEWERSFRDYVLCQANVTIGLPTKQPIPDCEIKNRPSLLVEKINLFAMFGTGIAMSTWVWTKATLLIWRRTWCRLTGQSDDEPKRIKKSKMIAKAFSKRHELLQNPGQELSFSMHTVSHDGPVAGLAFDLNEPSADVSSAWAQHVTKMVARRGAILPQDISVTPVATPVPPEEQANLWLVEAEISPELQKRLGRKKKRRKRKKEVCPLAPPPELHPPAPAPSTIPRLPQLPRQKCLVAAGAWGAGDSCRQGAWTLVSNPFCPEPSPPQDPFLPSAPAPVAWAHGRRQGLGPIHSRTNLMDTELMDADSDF

| Structure (SMILES) | IC50 |
| --- | --- |
| COC1CCN(c2ncc3c(n2)CCN(c2cc(-c4ncc(C)cc4C)c(Cl)cn2)C3)CC1 [Compound A-68, 6-(5′-chloro-3,5-dimethyl-2,4′-bipyridin-2′-yl)-2-(4-methoxy-piperidin-1-yl)-5,6,7,8-tetrahydro-pyrido-[4,3-d]pyrim-idine] | 163 nM |
| Cc1cnc(-c2cc(N3Cc4cnc(NC5CC5)nc4C(C)C3)ncc2Cl)c(C)c1 (stereo not drawn) [Compound A-75, 6-(5′-chloro-3,5-dimethyl-2,4′-bipyridin-2′-yl)-N-cyclopropyl-8-methyl-5,6,7,8-tetrahydro-pyrido-[4,3-d]pyrimidin-2-amine] | 257 nM |
| Cc1cnc(-c2cc(N3CCc4nc(OC(C)C)ncc4C3)ncc2Cl)c(C)c1 [Compound A-69, 6-(5′-chloro-3,5-dimethyl-2,4′-bipyridin-2′-yl)-2-isopropoxy-5,6,7,8-tetrahydro-pyrido-[4,3-d]pyrim-idine] | 97.8 nM |
| Cc1cnc(-c2cc(N3CCc4nc(N5CCC(O)CC5)ncc4C3=O)ncc2Cl)c(C)c1 [Compound A-97, 6-(5′-chloro-3,5-dimethyl-2,4′-bipyridin-2′-yl)-2-(4-hydroxypiperidin-1-yl)-7,8-dihydro-pyrido[4,3-d]pyrimidin-5(6H)-one] | 84.1 nM |
| Clc1cnc(N2CCc3nc(NC4CC4)ncc3C2)cc1-c1cnccn1 [Compound A-116, 6-(5-chloro-4-(pyrazin-2-yl)pyridin-2-yl)-N-cyclopropyl-5,6,7,8-tetrahydropyrido[4,3-d]pyrimidin-2-amine] | 235 nM |
| Cc1cnc(-c2cc(N3CC(C)c4nc(N5CCC(O)CC5)ncc4C3=O)ncc2Cl)c(C)c1 (stereo not drawn) [Compound A-78, 6-(5′-chloro-3,5-dimethyl-2,4′-bipyridin-2′-yl)-2-(4-hydroxy-piperidin-1-yl)-8-methyl-7,8-dihydro-pyrido[4,3-d]pyrimidin-5(6H)-one] | 125 nM |
| Cc1cnc(-c2cc(N3CCc4nc(N5CCOCC5)ncc4C3)ncc2Cl)c(C)c1 [Compound A-56, 4-(6-(5′-chloro-3,5-dimethyl-2,4′-bipyridin-2′-yl)-5,6,7,8-tetrahydro-pyrido-[4,3-d]pyrimidin-2-yl)morpholine] | 48.7 nM |
| Cc1cnc(-c2cc(N3CCn4cc(C(=O)N5CCC(O)CC5)nc4C3)ncc2Cl)c(C)c1 [Compound A-4, (7-(5′-chloro-3,5-dimethyl-2,4′-bipyridin-2′-yl)-5,6,7,8-tetrahydro-imidazo-[1,2-a]pyrazin-2-yl)(4-hydroxy-piperidin-1-yl)methanone] | 639 nM |
| CCNC(=O)Nc1ncc2c(n1)CCN(c1cc(-c3ncc(C)cc3C)c(Cl)cn1)C2 [Compound A-91, 1-(6-(5′-chloro-3,5-dimethyl-2,4′-bipyridin-2′-yl)-5,6,7,8-tetrahydropyrido-[4,3-d]pyrimidin-2-yl)-3-ethylurea] | > 1000 nM |
| Cc1cnc(-c2cc(N3CCc4nc(N5CC(C)NC(C)C5)ncc4C3)ncc2Cl)c(C)c1 (stereo not drawn) [Compound A-57, 6-(5′-chloro-3,5-dimethyl-2,4′-bipyridin-2′-yl)-2-(3,5-dimethyl-piperazin-1-yl)-5,6,7,8-tetrahydro-pyrido-[4,3-d]pyrimidine] | 11.1 nM |
| Cc1cnc(-c2cc(N3CCc4nc(N)ncc4C3)ncc2Cl)c(C)c1 [Compound A-89, 6-(5′-chloro-3,5-dimethyl-2,4′-bipyridin-2′-yl)-5,6,7,8-tetrahydropyrido-[4,3-d]pyrimidin-2-amine] | > 1000 nM |
| Cc1cnc(-c2cc(N3CCn4cc(NC(=O)C(F)(F)F)nc4C3)ncc2Cl)c(C)c1 [Compound A-12, N-(7-(5′-chloro-3,5-dimethyl-2,4′-bipyridin-2′-yl)-5,6,7,8-tetrahydro-imidazo-[1,2-a]pyrazin-2-yl)-2,2,2-trifluoro-acetamide] | > 1000 nM |
| Cc1cnc(-c2cc(N3CCc4nc(Nc5ccccc5)sc4C3)ncc2Cl)c(C)c1 [Compound A-48, 5-(5′-chloro-3,5-dimethyl-2,4′-bipyridin-2′-yl)-N-phenyl-4,5,6,7-tetrahydro-thiazolo-[5,4-c]pyridin-2-amine] | 330 nM |
| Cc1cnc(-c2cc(N3CCn4cc(C(=O)N5CCCC5)nc4C3)ncc2Cl)c(C)c1 [Compound A-3, (7-(5′-chloro-3,5-dimethyl-2,4′-bipyridin-2′-yl)-5,6,7,8-tetrahydroimidazo[1,2-a]pyrazin-2-yl)(pyrrolidin-1-yl)methanone] | 244 nM |
| Clc1cnc(N2CCc3nc(NC4CC4)ncc3C2)cc1-c1nccs1 [Compound A-117, 6-(5-chloro-4-(thiazol-2-yl)pyridin-2-yl)-N-cyclopropyl-5,6,7,8-tetrahydropyrido[4,3-d]pyrimidin-2-amine] | 169 nM |
| Cc1cnc(-c2cc(N3CCc4nc(N5CCC(O)C5)ncc4C3)ncc2Cl)c(C)c1 (stereo not drawn) [Compound A-66, 1-(6-(5′-chloro-3,5-dimethyl-2,4′-bipyridin-2′-yl)-5,6,7,8-tetrahydro-pyrido-[4,3-d]pyrim-idin-2-yl)pyrrolidin-3-ol] | 85.1 nM |
| FC(F)(F)c1ccc(-c2cc(N3CCc4nc(NC5CC5)ncc4C3)ncc2Cl)nc1 [Compound A-114, 6-(5′-chloro-5-(trifluoro-methyl)-2,4′-bipyridin-2′-yl)-N-cyclopropyl-5,6,7,8-tetrahydro-pyrido-[4,3-d]pyrimidin-2-amine] | > 1000 nM |
| CSc1ncc2c(n1)C(C)(C)CN(c1cc(-c3ncc(C)cc3C)c(Cl)cn1)C2 [Compound A-79, 6-(5′-chloro-3,5-dimethyl-2,4′-bipyridin-2′-yl)-8,8-dimethyl-2-(methylthio)-5,6,7,8-tetrahydro-pyrido-[4,3-d]pyrim-idine] | 188 nM |
| Cc1cnc(-c2cc(N3CCn4cc(C(=O)Oc5ccccc5)nc4C3)ncc2Cl)c(C)c1 [Compound A-18, phenyl 7-(5′-chloro-3,5-dimethyl-2,4′-bipyridin-2′-yl)-5,6,7,8-tetrahydro-imidazo-[1,2-a]pyrazine-2-carboxylate] | > 1000 nM |
| Cc1cnc(-c2cc(N3CCc4nc(NC(=O)NC(C)C)sc4C3)ncc2Cl)c(C)c1 [Compound A-43, 1-(5-(5′-chloro-3,5-dimethyl-2,4′-bipyridin-2′-yl)-4,5,6,7-tetrahydro-thiazolo-[5,4-c]pyridin-2-yl)-3-isopropylurea] | 201 nM |
| CSc1ncc2c(n1)CCN(c1cc(-c3ncc(C)cc3C)c(Cl)cn1)C2 [Compound A-63, 6-(5′-chloro-3,5-dimethyl-2,4′-bipyridin-2′-yl)-2-(methylthio)-5,6,7,8-tetrahydro-pyrido-[4,3-d]pyrimidine] | 87.6 nM |
